A short description of this assay: Inhibition of Saccharomyces cerevisiae alpha-glucosidase using p-nitrophenyl-alpha-D-glucopyranoside as substrate measured after 30 mins.

Drawing on ChEMBL document CHEMBL4190275, “Quinoliniumolate and 2H-1,2,3-Triazole Derivatives from the Stems of Paramignya trimera and Their α-Glucosidase Inhibitory Activities: In Vitro and in Silico Studies” (J Nat Prod, 2017), this text covers IC50 for two compounds.

Bounds are passed on as bounds.

As usually defined, the IC50 is the point on the concentration scale where inhibition reaches its midpoint. Read a low IC50 as greater potency. With `CCCC[C@@H](CC)COC(=O)c1cn[nH]n1`, the IC50 was determined as 138 µM. Regarding `C/C=C/c1cc(=O)c2ccccc2n1C`, the IC50 is > 250 µM.
